What was measured:
human serum = assay: Plasma protein binding assay; assay type: in vitro ADME; settings: for filter-bound radioactivity: n=3
Protocol: 1.16 Plasma Protein Binding Assay
Plasma protein binding assays were performed according to literature methods.^19 Briefly, 37 kBq of ^177Lu-PSMA-617 or ^177Lu-HTK01169 in 50 μL PBS was added into 200 μL human serum and the mixture was incubated at room temperature for […]. The mixture was then loaded onto a membrane filter (Nanosep®, 30 K, Pall Corporation, USA) and centrifuged for 45 min (30,130×g). Saline (50 μL) was added and centrifugation was continued for another 15 min. The top part with the membrane filter and the bottom part with the solution were counted on a gamma counter. For control, saline was used in place of human serum.

[1] = system: mice bearing LNCaP xenografts; assay: Biodistribution of 177Lu-labeled compounds; assay type: in vivo
Protocol: 1.17 SPECT/CT Imaging, Biodistribution and Endoradiotherapy Studies
SPECT/CT imaging and biodistribution were performed using NOD-scid IL2Rgammanu^null (NSG) male mice, and the endoradiotherapy study was conducted using NOD.Cg-Rag1^tm1MomII2rg^tm1WjI/SzJ (NRG) male mice. The mice were maintained and the experiments were conducted in according to the guidelines established by the Canadian Council on Animal Care and approved by Animal Ethics Committee of the University of British Columbia. Mice were anesthetized by inhalation with 2% isoflurane in oxygen, and implanted subcutaneously with 1×10^7 LNCaP cells posterior to the left shoulder. Mice were used for studies when the tumor reached 5-8 mm in diameter 5-6 weeks after inoculation.
For biodistribution studies, the mice were injected with ^177Ludabeled PSMA-617 or HTK01169 (2-4 MBq) as described above. At predetermined time points (1, 4, 24, 72, or 120 h post-injection), the mice were euthanized by CO2 inhalation. Blood was withdrawn immediately from the heart, and the organs/tissues of interest were collected. The collected organs/tissues were weighed and counted using an automated gamma counter. For the blocking study, mice were co-injected with ^177Lu-HTK01169 (2-4 MBq) and 50 nmol of the non-radioactive standard, and organs/tissues of interest were collected at 4 h post-injection.

LNCaP tumors = assay: Radiation dosimetry calculation, unit density sphere model; set-up: species or system mice
Protocol: Internal dosimetry estimates were calculated using the organ level internal dose assessment (OLINDA) software v.2.0.^37 These estimates were performed for the mouse using the 25 g MOBY phantom,^38 for humans using the NURBS model for the adult male,^39 and for the tumors using the previously reported unit density sphere model.^40 All the phantoms and the sphere model are available in OLINDA and require the input of the total number of decays normalized by injected activity in units of MBq×h/MBq for each of the source organ/tumor.
Lastly, the numbers of decays in the tumors were also calculated based on the biodistribution data of the mice and the values were inputted into the sphere model available in OLINDA.

O=C([O-])CN1CCN(CC(=O)[O-])CCN(CC(=O)NCC2CCC(C(=O)N[C@@H](Cc3ccc4ccccc4c3)C(=O)NCCCC[C@H](NC(=O)N[C@@H](CCC(=O)O)C(=O)O)C(=O)O)CC2)CCN(CC(=O)[O-])CC1.[177Lu+3] (some centres unmarked) [^177Lu-PSMA-617, reference compound]
free radioligand (human serum; human serum): ~17% | filter-bound radioactivity (human serum; incubated with human serum): 82.7±0.32% | filter-bound radioactivity (human serum; incubated with saline (control)): 5.21±1.42% | tumor-to-background contrast ratios, trend ([1]; 1-120 h): improved over time as well | Adrenal glands uptake ([1]; 1 h post-injection): 4.88±2.41 % ID/g | Blood uptake ([1]; 1 h post-injection): 0.68±0.23 % ID/g | Bone uptake ([1]; 1 h post-injection): 0.14 ± 0.06 % ID/g | Brain uptake ([1]; 1 h post-injection): 0.03 ± 0.01 % ID/g | Fat uptake ([1]; 1 h post-injection): 0.46 ± 0.18 % ID/g | Heart uptake ([1]; 1 h post-injection): 0.28 ± 0.10 % ID/g | Intestine uptake ([1]; 1 h post-injection): 0.26 ± 0.16 % ID/g | Kidneys uptake ([1]; 1 h post-injection): 97.2±19.4 % ID/g | Liver uptake ([1]; 1 h post-injection): 0.26 ± 0.15 % ID/g | Lung uptake ([1]; 1 h post-injection): 1.34±0.39 % ID/g | Muscle uptake ([1]; 1 h post-injection): 0.18 ± 0.06 % ID/g | Pancreas uptake ([1]; 1 h post-injection): 0.33 ± 0.18 % ID/g | Seminal uptake ([1]; 1 h post-injection): 0.14 ± 0.08 % ID/g | Spleen uptake ([1]; 1 h post-injection): 3.34±1.77 % ID/g | Stomach uptake ([1]; 1 h post-injection): 0.18 ± 0.14 % ID/g | Testes uptake ([1]; 1 h post-injection): 0.49 ± 0.22 % ID/g | Tumor uptake ([1]; 1 h post-injection): 15.1±5.58 % ID/g | Tumor/blood ratio ([1]; 1 h post-injection): 22.8 ± 6.85 | Tumor/kidney ratio ([1]; 1 h post-injection): 0.15 ± 0.04 | Tumor/muscle ratio ([1]; 1 h post-injection): 86.9 ± 26.6 | Adrenal glands uptake ([1]; 4 h post-injection): 0.40 ± 0.18 % ID/g | Blood uptake ([1]; 4 h post-injection): 0.12 ± 0.18 % ID/g | Bone uptake ([1]; 4 h post-injection): 0.06 ± 0.03 % ID/g | Brain uptake ([1]; 4 h post-injection): 0.02 ± 0.00 % ID/g | Fat uptake ([1]; 4 h post-injection): 0.16 ± 0.11 % ID/g | Heart uptake ([1]; 4 h post-injection): 0.04 ± 0.02 % ID/g | Intestine uptake ([1]; 4 h post-injection): 0.07 ± 0.04 % ID/g | Kidneys uptake ([1]; 4 h post-injection): 26.6 ± 19.1 % ID/g | Liver uptake ([1]; 4 h post-injection): 0.08 ± 0.06 % ID/g | Lung uptake ([1]; 4 h post-injection): 0.16 ± 0.07 % ID/g | Muscle uptake ([1]; 4 h post-injection): 0.05 ± 0.03 % ID/g | Pancreas uptake ([1]; 4 h post-injection): 0.05 ± 0.01 % ID/g | Seminal uptake ([1]; 4 h post-injection): 0.02 ± 0.01 % ID/g | Spleen uptake ([1]; 4 h post-injection): 0.24 ± 0.14 % ID/g | Stomach uptake ([1]; 4 h post-injection): 0.04 ± 0.02 % ID/g | Testes uptake ([1]; 4 h post-injection): 0.06 ± 0.01 % ID/g | Tumor uptake ([1]; 4 h post-injection): 14.5 ± 1.83 % ID/g | Tumor/blood ratio ([1]; 4 h post-injection): 290 ± 175 | Tumor/kidney ratio ([1]; 4 h post-injection): 0.79 ± 0.48 | Tumor/muscle ratio ([1]; 4 h post-injection): 371 ± 171 | Adrenal glands uptake ([1]; 24 h post-injection): 0.06 ± 0.03 % ID/g | Blood uptake ([1]; 24 h post-injection): 0.00 ± 0.00 % ID/g | Bone uptake ([1]; 24 h post-injection): 0.03 ± 0.02 % ID/g | Brain uptake ([1]; 24 h post-injection): 0.01 ± 0.00 % ID/g | Fat uptake ([1]; 24 h post-injection): 0.08 ± 0.03 % ID/g | Heart uptake ([1]; 24 h post-injection): 0.01 ± 0.00 % ID/g | Intestine uptake ([1]; 24 h post-injection): 0.02 ± 0.00 % ID/g | Kidneys uptake ([1]; 24 h post-injection): 0.58 ± 0.22 % ID/g | Liver uptake ([1]; 24 h post-injection): 0.03 ± 0.01 % ID/g | Lung uptake ([1]; 24 h post-injection): 0.03 ± 0.01 % ID/g | Muscle uptake ([1]; 24 h post-injection): 0.01 ± 0.00 % ID/g | Pancreas uptake ([1]; 24 h post-injection): 0.01 ± 0.00 % ID/g | Seminal uptake ([1]; 24 h post-injection): 0.01 ± 0.00 % ID/g | Spleen uptake ([1]; 24 h post-injection): 0.05 ± 0.01 % ID/g | Stomach uptake ([1]; 24 h post-injection): 0.04 ± 0.02 % ID/g | Testes uptake ([1]; 24 h post-injection): 0.02 ± 0.01 % ID/g | Tumor uptake ([1]; 24 h post-injection): 10.9 ± 3.30 % ID/g | Tumor/blood ratio ([1]; 24 h post-injection): 2293 ± 651 | Tumor/kidney ratio ([1]; 24 h post-injection): 20.7 ± 8.39 | Tumor/muscle ratio ([1]; 24 h post-injection): 1582 ± 353 | Adrenal glands uptake ([1]; 72 h post-injection): 0.10 ± 0.06 % ID/g | Blood uptake ([1]; 72 h post-injection): 0.00 ± 0.00 % ID/g | Bone uptake ([1]; 72 h post-injection): 0.05 ± 0.02 % ID/g | Brain uptake ([1]; 72 h post-injection): 0.01 ± 0.00 % ID/g | Fat uptake ([1]; 72 h post-injection): 0.05 ± 0.02 % ID/g | Heart uptake ([1]; 72 h post-injection): 0.01 ± 0.01 % ID/g | Intestine uptake ([1]; 72 h post-injection): 0.01 ± 0.01 % ID/g | Kidneys uptake ([1]; 72 h post-injection): 0.22 ± 0.11 % ID/g | Liver uptake ([1]; 72 h post-injection): 0.02 ± 0.01 % ID/g | Lung uptake ([1]; 72 h post-injection): 0.02 ± 0.01 % ID/g | Muscle uptake ([1]; 72 h post-injection): 0.01 ± 0.00 % ID/g | Pancreas uptake ([1]; 72 h post-injection): 0.01 ± 0.01 % ID/g | Seminal uptake ([1]; 72 h post-injection): 0.01 ± 0.01 % ID/g | Spleen uptake ([1]; 72 h post-injection): 0.03 ± 0.02 % ID/g | Stomach uptake ([1]; 72 h post-injection): 0.03 ± 0.03 % ID/g | Testes uptake ([1]; 72 h post-injection): 0.01 ± 0.00 % ID/g | Tumor uptake ([1]; 72 h post-injection): 7.80 ± 3.69 % ID/g | Tumor/blood ratio ([1]; 72 h post-injection): 2206 ± 337 | Tumor/kidney ratio ([1]; 72 h post-injection): 38.0 ± 13.4 | Tumor/muscle ratio ([1]; 72 h post-injection): 1378 ± 335 | Adrenal glands uptake ([1]; 120 h post-injection): 0.04 ± 0.02 % ID/g | Blood uptake ([1]; 120 h post-injection): 0.00 ± 0.00 % ID/g | Bone uptake ([1]; 120 h post-injection): 0.02 ± 0.01 % ID/g | Brain uptake ([1]; 120 h post-injection): 0.01 ± 0.00 % ID/g | Fat uptake ([1]; 120 h post-injection): 0.03 ± 0.01 % ID/g | Heart uptake ([1]; 120 h post-injection): 0.00 ± 0.00 % ID/g | Intestine uptake ([1]; 120 h post-injection): 0.03 ± 0.03 % ID/g | Kidneys uptake ([1]; 120 h post-injection): 0.08 ± 0.03 % ID/g | Liver uptake ([1]; 120 h post-injection): 0.01 ± 0.00 % ID/g | Lung uptake ([1]; 120 h post-injection): 0.01 ± 0.00 % ID/g | Muscle uptake ([1]; 120 h post-injection): 0.00 ± 0.00 % ID/g | Pancreas uptake ([1]; 120 h post-injection): 0.00 ± 0.00 % ID/g | Seminal uptake ([1]; 120 h post-injection): 0.00 ± 0.00 % ID/g | Spleen uptake ([1]; 120 h post-injection): 0.02 ± 0.01 % ID/g | Stomach uptake ([1]; 120 h post-injection): 0.05 ± 0.05 % ID/g | Testes uptake ([1]; 120 h post-injection): 0.01 ± 0.00 % ID/g | Tumor uptake ([1]; 120 h post-injection): 7.91±2.82 % ID/g | Tumor/blood ratio ([1]; 120 h post-injection): 4425 ± 1485 | Tumor/kidney ratio ([1]; 120 h post-injection): 103 ± 75.9 | Tumor/muscle ratio ([1]; 120 h post-injection): 4388 ± 4211 | blood clearance (qualitative) ([1]; mouse, in vivo): cleared rapidly from blood | peaked tumor uptake ([1]; peak over 1-120 h): 15.1±5.58 % ID/g | kinetic uptake value used as input in OLINDA (LNCaP tumors): 3.80 MBq-h/MBq

From US20200339625A1, “NOVEL RADIOMETAL-BINDING COMPOUNDS FOR DIAGNOSIS OR TREATMENT OF PROSTATE SPECIFIC MEMBRANE ANTIGEN-EXPRESSING CANCER” (PROVINCIAL HEALTH SERVICES AUTHORITY, priority 2017, published 2020)
